Assay: Absorption maximum of aminobutadienes in methanol (or ethanol)
Type: physicochemical
Conditions: in methanol (or ethanol when not soluble in methanol)
Text: The aminobutadiene according to the present invention has the general formula (I) disclosed above. A preferred class of aminobutadienes is that in which R3 represents —COOH, —COOR5, —COR5 or SO2R5 and R4 represents a carboxyl group, —COOR6, —COR6 or —SO2R6, wherein R1, R2, R5 and R6 have the meanings indicated above. Examples of aminobutadienes according to the general formula (I) are for example disclosed in U.S. Pat. No. 4,195,999. Table 1 lists a number of aminobutadienes according to the present invention which can be coupled to an amine rich polymer, including their absorption maxima in methanol (or ethanol when not soluble in methanol).

`CCCCC(CC)COC(=O)/C(=C\C=C\N1CCCCC1)C(C)=O` (stereo not shown) [2.3] gave an Absorption maximum of 395 nm.

Source: patent US20090130033A1, “Dendrimer-Aminobuadiene-Based Uv Screens” (priority 2004, published 2009)
